# Assay results from patent EP3928779A1 (Chugai Seiyaku Kabushiki Kaisha, priority 2014, dated 2016).
# Test system: rat small-intestinal brush border membrane vesicles
# Assay: Inhibitory effect on 33PO4 uptake into rat small-intestinal brush border membrane vesicles (rapid filtration method)
# Assay type: biochemical
# Settings: 33PO4 uptake into rat small-intestinal BBMVs; test compound 1 µM; reacted for 60 seconds
# Summary of the method: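 Uptake of ^33PO4 was measured by rapid filtration and liquid scintillation counting of filter-retained vesicles, after quenching with ice-cold 110 mM NaCl/1 mM KH2PO4/10 mM HEPES pH 7.5. Vesicles were brush border membranes from the upper small intestine of female Wistar rats aged 4–5 weeks.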
row,Molecule,Rate of uptake inhibition (%) (1 µM)
1,"(4aR)-1-[(3-Fluorophenyl)methyl]-4-hydroxy-N-[5-methyl-2-(trifluoromethyl)furan-3-yl]-2-oxo-4a-propyl-6,7-dihydro-5H-pyrrolo[1,2-b]pyridazine-3-carboxamide [Example 11]",22
2,"1-[(3-Fluorophenyl)methyl]-4-hydroxy-4a-methyl-N-[5-methyl-2-(trifluoromethyl)furan-3-yl]-2-oxo-5,6,7,8-tetrahydropyrido[1,2-b]pyridazine-3-carboxamide [Example 18]",12
3,Cc1nc(NC(=O)C2=C(O)C3(CCC3)N(C)N(Cc3cccc(F)c3F)C2=O)ccc1Br [Example 259],52
4,CN1N(Cc2ccc(OCCCCCOC[C@H](O)CO)c(F)c2F)C(=O)C(C(=O)Nc2ccc(C(F)(F)F)cc2-c2ccc(C(F)(F)F)nc2)=C(O)C12CCC2 [Example 385],39
5,Cc1c(Cl)ncnc1-c1cc(Cl)ccc1NC(=O)C1=C(O)[C@H](C(C)(C)C)N(C)N(Cc2ccc(OCCN3CCOCC3)c(F)c2F)C1=O [Example 275],42
6,COC(=O)CN(C)CCOc1ccc(CN2C(=O)C(C(=O)Nc3ccc(C(F)(F)F)cc3-c3cc(C(F)(F)F)ncn3)=C(O)C3(CCCC3)N2C)c(F)c1F [Example 368],26
7,CN1N(Cc2ccc(OCCN3CCOCC3)c(F)c2F)C(=O)C(C(=O)Nc2ccc(Cl)cc2-c2cc(C(F)(F)F)ncn2)=C(O)C12CCCC2 [Example 286],50
8,C[C@]12CCCN1N(Cc1ccccc1Cl)C(=O)C(C(=O)Nc1ccc(C(F)(F)F)cc1-c1ccc(C(F)(F)F)nc1)=C2O [Example 168],72
9,"(4aR)-1-[(3-Fluorophenyl)methyl]-4-hydroxy-4a-methyl-N-[5-methyl-2-(trifluoromethyl)furan-3-yl]-2-oxo-6,7-dihydro-5H-pyrrolo[1,2-b]pyridazine-3-carboxamide [Example 6]",48
10,CN1N(Cc2ccc(OCCCCOC[C@H](O)CO)c(F)c2F)C(=O)C(C(=O)Nc2ccc(C(F)(F)F)cc2-c2cc(C(F)(F)F)ncn2)=C(O)C12CCCC2 [Example 393],45
11,"C[C@]12CCCN1N(Cc1ccc(OCCCCOC[C@H](O)CO)c(F)c1F)C(=O)C(C(=O)Nc1ccc(Cl)cc1-c1ccc(C(F)(F)F)nc1)=C2O [Example 121, (4aR)-N-[4-Chloro-2-[6-(trifluoromethyl)pyridin-3-yl]phenyl]-1-[[4-[4-[(2R)-2,3-dihydroxypropoxy]butoxy]-2,3-difluorophenyl]methyl]-4-hydroxy-4a-methyl-2-oxo-6,7-dihydro-5H-pyrrolo[1,2-b]pyridazine-3-carboxamide]",72
12,CN(C)S(=O)(=O)c1ccc(-c2cc(C(F)(F)F)ccc2NC(=O)C2=C(O)[C@@]3(C)CCCN3N(Cc3cccc(F)c3F)C2=O)s1 [Example 71],97
13,"CN(CCOCCOc1ccc(CN2C(=O)C(C(=O)Nc3ccc(C(F)(F)F)cc3-c3cc(C(F)(F)F)ncn3)=C(O)C3(CCCC3)N2C)c(F)c1F)C[C@H](O)[C@@H](O)[C@H](O)[C@H](O)CO [Example 420, 7-[[2,3-Difluoro-4-[2-[2-[methyl-[(2S,3R,4R,5R)-2,3,4,5,6-pentahydroxyhexyl]amino]ethoxy]ethoxy]phenyl]methyl]-10-hydroxy-6-methyl-8-oxo-N-[4-(trifluoromethyl)-2-[6-(trifluoromethyl)pyrimidin-4-yl]phenyl]-6,7-diazaspiro[4.5]dec-9-ene-9-carboxamide]",19
14,CN1N(Cc2ccc(OCCCOCCO)c(F)c2F)C(=O)C(C(=O)Nc2ccc(C(F)(F)F)cc2-c2cc(C(F)(F)F)ncn2)=C(O)C12CCCC2 [Example 395],39
15,COCC(C)(C)N(C)CCOc1ccc(CN2C(=O)C(C(=O)Nc3ccc(C(F)(F)F)cc3-c3cc(C(F)(F)F)ncn3)=C(O)C3(CCCC3)N2C)c(F)c1F [Example 372],38
16,C[C@]12CCCN1N(Cc1c(F)cccc1Cl)C(=O)C(C(=O)Nc1ccc(C(F)(F)F)cc1-c1cc(C(F)(F)F)ncn1)=C2O [Example 210],71
17,CN1N(Cc2cccc(F)c2F)C(=O)C(C(=O)Nc2ccc(C(F)(F)F)cc2-c2ccc(S(=O)(=O)N(C)C)cc2)=C(O)C1(C)C [Example 308],63
18,C[C@]12CCCN1N(Cc1cccc(F)c1F)C(=O)C(C(=O)Nc1ccc(Cl)cn1)=C2O [Example 79],71
19,C[C@]12CCCN1N(Cc1cccc(OC(F)F)c1)C(=O)C(C(=O)Nc1ccc(C(F)(F)F)cc1-c1cc(C(F)(F)F)ncn1)=C2O [Example 177],85
20,COC(C)(C)CN(C)CCOc1ccc(CN2C(=O)C(C(=O)Nc3ccc(C(F)(F)F)cc3-c3cc(C(F)(F)F)ncn3)=C(O)C3(CCC3)N2C)c(F)c1F [Example 350],45
21,C[C@]12CCCN1N(Cc1c(F)cc(C#CCCCCOC[C@H](O)CO)cc1F)C(=O)C(C(=O)Nc1ccc(C(F)(F)F)cc1-c1ccc(C(F)(F)F)nc1)=C2O.[Na+] [Example 143],71
22,CN(CCO)CCOc1ccc(CN2C(=O)C(C(=O)Nc3ccc(C(F)(F)F)cc3-c3cc(C(F)(F)F)ncn3)=C(O)C3(CCC3)N2C)c(F)c1F [Example 347],28
23,C[C@]12CCCN1N(Cc1c(F)cc(C#CC3(O)CCCC3)cc1F)C(=O)C(C(=O)Nc1ccc(C(F)(F)F)cc1-c1ccc(C(F)(F)F)nc1)=C2O [Example 130],72
24,CN(C)S(=O)(=O)N1CCC(c2cc(C(F)(F)F)ccc2NC(=O)C2=C(O)[C@@]3(C)CCCN3N(Cc3cccc(F)c3F)C2=O)CC1 [Example 110],57
25,C[C@]12CCCN1N(Cc1ccc(F)c(F)c1)C(=O)C(C(=O)Nc1ccc(C(F)(F)F)cc1-c1ccc(C(F)(F)F)nc1)=C2O [Example 170],73
26,Cc1nc(NC(=O)C2=C(O)[C@H](C(C)(C)C)N(C)N(Cc3cccc(F)c3F)C2=O)ccc1Br [Example 241],86
27,"(4aS,5S,8R)-1-(3-Fluorobenzyl)-4-hydroxy-N-(5-methyl-2-(trifluoromethyl)furan-3-yl)-2-oxo-2,4a,5,6,7,8-hexahydro-1H-5,8-methanopyrido[1,2-b]pyridazine-3-carboxamide [Example 20]",21
28,C[C@]12CCCN1N(Cc1c(F)cc(OCCCCCCOC[C@H](O)CO)cc1F)C(=O)C(C(=O)Nc1ccc(C(F)(F)F)cc1-c1ccc(C(F)(F)F)nc1)=C2O [Example 155],77
29,CN1N(Cc2ccc(OCCN3CCOCC3)c(F)c2F)C(=O)C(C(=O)Nc2ccc(C(F)(F)F)cc2-c2ccc(C(F)(F)F)nc2)=C(O)C12CCCC2 [Example 287],47
30,CC(C)[C@H]1C(O)=C(C(=O)Nc2ccc(C(F)(F)F)cc2-c2cc(C(F)(F)F)ncn2)C(=O)N(Cc2cccc(F)c2F)N1C [Example 252],53
